Experiment: gradient 5% acetonitrile 3 min, to 50% in 2 min, to 85% in 15 min, held 3 min, 100 µL/min
Settings: column: Zorbax Extend-C18 2.1 x 50 mm; eluents: water / acetonitrile, 0.1% formic acid
Outline: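 The mobile phases were water and acetonitrile, each with 0.1% formic acid, pumped at 100 μL/min through a Zorbax Extend-C18 column (2.1 × 50 mm, 1.8 μm). Pure standards were injected as mixtures of ~100 molecules and detected by a quadrupole time-of-flight mass spectrometer in positive and negative ionization mode. Retention time came from computationally picked adduct peaks, each inspected by hand.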

Row | RP-LC retention time [s] | Structure (SMILES)
1 | 578 | CC(C)c1nnc(C2CN(C)CC23CCN(Cc2cccc(C(F)(F)F)c2)CC3)o1 (stereo not drawn)
2 | 722 | Cc1nnc(-c2ccc(S(=O)(=O)NCc3ccco3)o2)o1
3 | 780 | COc1ccc(C)cc1Nc1ncnc(N)c1[N+](=O)[O-]
4 | 768 | CN(C)C(=O)c1ccc2c(c1)n(Cc1ccccc1)c(=O)c1ccnn12
5 | 744 | CC(=O)c1cccc(NC2=NS(=O)(=O)c3ccccc32)c1
6 | 657 | Cc1ccc(S(=O)(=O)NCCc2nnc3ccc(NCCCOC(C)C)nn23)cc1
7 | 716 | Cc1nc(-c2ccccc2)nn1C1CCN(S(=O)(=O)c2cccnc2)C1 (stereo not drawn)
8 | 854 | Cc1cc(C)n(-c2nc(CC(=O)NCc3ccc(F)cc3)cs2)n1
9 | 906 | COc1ccc(SCCCC(=O)Nc2cccc(C)c2C)cc1
10 | 702 | O=C(Cc1nnc(-c2ccc3ncccc3c2)o1)NCCc1ccccc1
11 | 823 | CC(C)N1C(=O)c2cccnc2Sc2cc(NC(=O)Cc3ccsc3)ccc21
12 | 746 | CC1=C(c2ccc(F)cc2)S(=O)(=O)N=C1N1CCCN(C(=O)NC(C)C)CC1
13 | 1110 | COC(=O)c1ccc2c(=O)n(-c3cccc(C)c3)c(N3CCSCC3)nc2c1
14 | 702 | Cc1csc(NC(=O)C2CCN(S(=O)(=O)c3cc(C(=O)N4CCOCC4)cs3)CC2)n1
15 | 885 | CC1CN(c2ccc(Cl)cc2)c2nc3c(c(=O)n(C)c(=O)n3C)n2C1 (stereo not drawn)
16 | 819 | CCOc1ccc(-c2noc(Cn3ccn4nc(-c5ccc(F)cc5)cc4c3=O)n2)cc1OC
17 | 648 | Cc1cc(C)c2c(N3CCOCC3)nc(C(=O)NCCC(C)C)nc2n1
18 | 672 | O=C(CCn1cnc2cc(-c3noc(-c4cccs4)n3)ccc21)N1CCOCC1
19 | 882 | Cn1nc(-c2nnc(-c3ccc(F)cc3)o2)c2c1CCN(S(=O)(=O)c1cccc3cccnc13)C2
20 | 1020 | CC1(C(=O)NCc2ccc(F)cc2)CN(S(=O)(=O)c2ccccc2)CC(=O)N1C1CCCCC1 (stereo not drawn)
21 | 752 | O=C(NCc1cc(F)cc(F)c1)C1CCN(c2ncnc3c2oc2ccccc23)CC1
22 | 1150 | CCOc1ccc(-c2ccc(=O)n(Cc3nc(-c4cccc(OCC)c4)no3)n2)cc1

Row | RP-LC retention time [s] | Structure (SMILES)
23 | 936 | CCOC(=O)C1CCN(c2nc(-c3ccc(Cl)cc3)nc3ccccc23)CC1
24 | 636 | COc1cccc(CNC(=O)CN2CCc3[nH]c4c(C)c(Cl)ccc4c(=O)c3C2)c1
25 | 945 | O=C(Nc1ccc(N2CCOCC2)cc1)C1CCCN(c2nccnc2Sc2ccccc2)C1 (stereo not drawn)
26 | 1010 | O=C(NCCc1csc(-c2ccccc2)n1)C1CCN(S(=O)(=O)c2ccc(Cl)s2)CC1
27 | 575 | CN1CCC(Oc2ncccc2NS(=O)(=O)N(C)C)CC1
28 | 679 | Cc1ccc(S(=O)(=O)N2CCN(c3cnn4c(C)nnc4c3)CC2)cc1
29 | 1220 | COc1ccc2c(c1)-c1nc(NC(=O)c3ccc(OC)c(Br)c3)sc1CC2
30 | 760 | Cc1ccc(C(=O)N2CCN(c3nnc4ccc(Cl)cn34)CC2)cc1F
31 | 612 | O=C(Nc1ccc(OCC(=O)N2CCCN(c3ncccn3)CC2)nc1)C1CC1
32 | 1060 | COc1ccc(-n2nnc(-c3nsc(Nc4ccc(Cl)cc4)n3)c2C)cc1
33 | 832 | COC(=O)c1ccc(C(=O)N(Cc2ccsc2)Cc2ccco2)cc1
34 | 1100 | COc1c(C(=O)N2CCN(c3ccccc3F)CC2)sc2cccc(F)c12
35 | 886 | CCOC(=O)CNC(=O)N1CCc2c([nH]c3ccc(OC)cc23)C1c1ccc(OC)cc1 (stereo not drawn)
36 | 995 | Cc1ccc(NC(=O)c2ccco2)c(C(=O)c2ccccc2)c1
37 | 688 | O=C(Nc1cccc(-c2ccc(N3CCOCC3)nn2)c1)Nc1ccccc1F
38 | 667 | CC(=O)NCc1csc(C2CCCN(C(=O)c3cc(F)ccc3F)C2)n1 (stereo not drawn)
39 | 1090 | COc1ccc(-c2cc(=S)ss2)cc1
40 | 841 | Cn1cc2c(n1)c(=O)n(Cc1ccc(F)cc1)c(=O)n2CC(=O)Nc1cc(F)ccc1F
41 | 904 | COCCc1noc(C2Cc3ccccc3N2C(=O)NCc2ccc(OC)cc2)n1 (stereo not drawn)
42 | 927 | Cc1nn(-c2ccccc2)c2ccn(CC(=O)N3CCN(c4cccc(Cl)c4)CC3)c(=O)c12
43 | 717 | O=C(NC1CC1)C1CCN(Cc2cc3ccccc3n2Cc2ccc(Cl)cc2)CC1
44 | 961 | O=C(NC1CCCCC1)c1cn(-c2cc(-c3nc(C4CC4)no3)ccn2)cn1

Row | RP-LC retention time [s] | Structure (SMILES)
45 | 1000 | O=C(Nc1ccc2c(c1)OCO2)C(=O)c1cn(CC(=O)N2CCCCC2)c2ccccc12
46 | 1020 | Cc1ccc(S(=O)(=O)N2CC(=O)N(c3cccc(F)c3)C(C)(C(=O)NCCC(C)C)C2)cc1 (stereo not drawn)
47 | 648 | O=C(NCc1ccc(F)cc1)C(=O)NCC(c1ccc2c(c1)OCO2)N1CCOCC1 (stereo not drawn)
48 | 697 | Cc1cc(C)cc(NC(=O)NC2CCN(c3ccccc3)C2=O)c1 (stereo not drawn)
49 | 1080 | COCC(C)NC(=O)c1cc2c(s1)N(CC(C)C)CCCC2 (stereo not drawn)
50 | 823 | COc1ccc(CN2N=C(C(=O)N3CCCC3)S(=O)(=O)c3ccccc32)cc1
51 | 1020 | CCN(Cc1ccccc1)Cc1nc(-c2ccc(N3CCCC(C)C3)nc2)no1 (stereo not drawn)
52 | 780 | CN[C@H](CNC(=O)N1CCC[C@@H]([C@@H](OCCNC(=O)OC)c2cccc(Cl)c2)C1)C[C@H]1CCCOC1
53 | 1270 | CN(C)S(=O)(=O)c1ccc(-c2nnc(C(=O)NCCN3CCOCC3)o2)cc1
54 | 558 | COCC(=O)Nc1ccc2nc(N3CCN(CC(=O)N4CCCCC4)CC3)cc(C(=O)O)c2c1
55 | 799 | Cc1ccc(NC(=O)C2CCc3sc(C(=O)N(C)C)cc3C2)c(C)c1 (stereo not drawn)
56 | 919 | O=C(COc1ccccc1)Nc1cnc(N2CCCCC2)nc1
57 | 602 | Cc1cnn(Cc2c(C(=O)N3CCc4nn(C)c(=O)n4CC3)noc2C)c1
58 | 717 | O=C(O)CCc1csc(NC(=O)Nc2ccc(Cl)cc2)n1
59 | 666 | O=C(Cc1cccs1)N1CCN(c2nnc3ccc(C(F)(F)F)cn23)CC1
60 | 869 | Cc1ccc(-c2cc(NC(=O)C3CC3)on2)s1
61 | 1290 | CC(C)c1ccc(-c2nc(C3CC(=O)N(c4ccc(F)c(Cl)c4)C3)no2)cc1 (stereo not drawn)
62 | 657 | CNC(=O)C1CCCN(S(=O)(=O)c2ccc(OC)c(OC)c2)C1 (stereo not drawn)
63 | 612 | CC(=O)NCc1csc(C2CCCN(C(=O)c3cccn3C)C2)n1 (stereo not drawn)
64 | 648 | CCNC(=O)C1CCCN(c2nc3ncn(CC(=O)NCc4ccc(F)cc4)c(=O)c3s2)C1 (stereo not drawn)
65 | 1010 | O=C(Nc1ccc(F)c(Cl)c1)Nc1nccn(-c2ccc(F)cc2)c1=O
66 | 651 | Cc1c(CC(=O)NC2CC2)c(=O)n2nc(-c3ccccc3)nc2n1C

Row | RP-LC retention time [s] | Structure (SMILES)
67 | 572 | CC(C(=O)NCCN1CCN(C)CC1)n1c2ccccc2c2cnn(C)c(=O)c21 (stereo not drawn)
68 | 723 | Cc1cc(C2CCCN2C(=O)Cc2ccccc2F)no1 (stereo not drawn)
69 | 814 | Cc1ccc(NC(=O)Cc2ccc(S(C)(=O)=O)cc2)c(C(=O)c2ccccc2)c1
70 | 675 | CCCN(C)C(=O)CCc1cc2cc(OC)ccc2[nH]c1=O
71 | 902 | COc1cccc(-c2csc(Nc3ccc(C)cn3)n2)c1
72 | 1030 | CSc1ccc(CNC(=O)C2CCCN(c3nccn4nc(-c5ccc(C)cc5C)cc34)C2)cc1 (stereo not drawn)
73 | 668 | Nc1ncncc1-c1ccc2ccccc2c1
74 | 872 | CCOc1ccc(N2C=C(C(=O)N3CCCC3)S(=O)(=O)c3ccc(F)cc32)cc1
75 | 642 | COc1ncccc1C(=O)Nc1onc2c1CSC2
76 | 930 | CCCn1c(=O)c(C)nc2cc(-c3noc(Cc4ccc(OC)c(OC)c4)n3)ccc21
77 | 721 | CC(C)c1noc(-c2ccn3c(CC(=O)N4CCCCC4)nnc3c2)n1
78 | 1000 | CCS(=O)(=O)c1ccc2c(c1)N(Cc1nc(-c3ccc(C)c(C)c3)no1)C(=O)CO2
79 | 663 | COc1ccc(-n2ccn3c(CCC(=O)N4CCN(c5ccccn5)CC4)nnc3c2=O)cc1
80 | 1190 | Cc1cccc(Sc2nccnc2N2CCCC(C(=O)NCCCc3ccccc3)C2)c1 (stereo not drawn)
81 | 1270 | Cc1ccc(-c2nnc(Cc3nc(-c4cccc(Br)c4)no3)o2)cc1C
82 | 782 | CCc1ccccc1NC(=O)C1CCCN(S(=O)(=O)c2cn(C(C)C)cn2)C1 (stereo not drawn)
83 | 964 | Cc1ccc(NC(=O)C2CCCN(c3ccc(=O)n(-c4cccc(Cl)c4)n3)C2)c(C)c1 (stereo not drawn)
84 | 866 | CCOC(=O)CNC(=O)Nc1ccccc1-c1cc2ccccc2[nH]1
85 | 659 | CC(C)NC(=O)Cn1cc(-c2ccccc2)c2ncnc(N3CCOCC3)c21
86 | 644 | CN1CCN(c2cc(C(=O)O)c3cc(NS(=O)(=O)c4ccc(Cl)c(Cl)c4)ccc3n2)CC1
87 | 989 | CCOC(=O)c1ccccc1NC(=O)Cn1nc2ccc(-c3ccc(Cl)cc3)nn2c1=O
88 | 785 | COc1ccccc1C(=O)N1CCCC(COc2ccc(C(=O)NC3CC3)cc2)C1 (stereo not drawn)
